Test results reported in PubChem BioAssay (NCI).
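Values below derive from 48-hour exposures of cells grown in 96-well plates, with endpoints linearly interpolated between the two concentrations bracketing the appropriate inhibition level. At the GI50, growth is halved. TGI is the concentration that stops growth completely.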

Legend:
Assay in all cases: NCI tumour cell line growth inhibition, 48 h
NCI/ADR-RES ovarian = test system: NCI/ADR-RES ovarian
DMS 273 small cell lung = test system: DMS 273 small cell lung
RXF-631 renal = test system: RXF-631 renal
XF 498 CNS = test system: XF 498 CNS
MDA-N = test system: MDA-N
P388/ADR leukemia = test system: P388/ADR leukemia
HOP-18 NSCLC = test system: HOP-18 NSCLC
SN12K1 renal = test system: SN12K1 renal
P388 leukemia = test system: P388 leukemia

CCCCNC(=O)Oc1ccc2c(=O)c3sc4c(=O)c5ccccc5c(=O)c4c3c(=O)c2c1
GI50 (NCI/ADR-RES ovarian): 1.58 µM
TGI (NCI/ADR-RES ovarian): 8.43 µM

N#C/C(=C/C=C/c1ccccc1)S(=O)c1ccccc1 (stereo not drawn)
GI50 (NCI/ADR-RES ovarian): 0.369 µM
TGI (NCI/ADR-RES ovarian): 13.7 µM

CCCCCCCC(=O)OCC1OC(n2cc(F)c(=O)[nH]c2=O)C(NC(=O)OCc2ccccc2)C(OC(=O)CCCCCCC)C1O (stereo not drawn)
TGI (DMS 273 small cell lung): 54.7 µM

O=C(COc1ccc(Cl)cc1)N1N=C(c2ccc([N+](=O)[O-])o2)CC1(O)c1ccccc1 (stereo not drawn)
TGI (RXF-631 renal): 24.9 µM
TGI (DMS 273 small cell lung): 18.6 µM
TGI (XF 498 CNS): 22.3 µM

CC(C)(C)N1CC(OC(N)=O)C1
GI50 (NCI/ADR-RES ovarian): > 100 µM
TGI (NCI/ADR-RES ovarian): > 100 µM

N#Cc1ccc(-c2nc3ccc(Cl)cc3[nH]2)cc1
TGI (NCI/ADR-RES ovarian): > 100 µM
TGI (MDA-N): > 100 µM

NC1=NC(c2ccccc2)CC(c2cc(Cl)cc(Br)c2O)=N1 (stereo not drawn)
TGI (NCI/ADR-RES ovarian): 29.9 µM
TGI (P388/ADR leukemia): > 27.8 µM
TGI (RXF-631 renal): 39.8 µM
TGI (HOP-18 NSCLC): 37.4 µM
TGI (SN12K1 renal): 28.3 µM
TGI (DMS 273 small cell lung): 23.2 µM
TGI (XF 498 CNS): 33.9 µM
TGI (P388 leukemia): > 20.7 µM

N#CC(C(=O)CCC(=O)Nc1ccc(Cl)cc1)c1ccccc1Cl (stereo not drawn)
TGI (RXF-631 renal): > 100 µM
TGI (DMS 273 small cell lung): > 100 µM
TGI (XF 498 CNS): > 100 µM

O=C(O)CN(c1ccccc1)S(=O)(=O)c1ccc(Cl)cc1
TGI (RXF-631 renal): > 100 µM
TGI (HOP-18 NSCLC): > 100 µM
TGI (DMS 273 small cell lung): > 100 µM

C[C@@H](Oc1cc(NS(=O)(=O)N2CCC2)nc(SCc2cccc(F)c2F)n1)[C@@H](O)CO
GI50 (NCI/ADR-RES ovarian): > 100 µM
TGI (NCI/ADR-RES ovarian): > 100 µM

COc1cc2ccnc3c2c(c1OC)CC1CC(O)C(OC)CC31 (stereo not drawn)
TGI (HOP-18 NSCLC): > 100 µM
TGI (DMS 273 small cell lung): > 100 µM
TGI (XF 498 CNS): > 100 µM

CCCC1C(=O)C(CC)Cc2c(OC)ccc(OC)c21 (stereo not drawn)
TGI (RXF-631 renal): > 100 µM
TGI (DMS 273 small cell lung): > 100 µM
TGI (XF 498 CNS): > 100 µM

COc1ccccc1N1CCN(C(=O)c2ccc(NS(=O)(=O)c3cccc4cccnc34)cc2)CC1
GI50 (NCI/ADR-RES ovarian): > 100 µM
TGI (NCI/ADR-RES ovarian): > 100 µM

O=C(O)CCSC(=O)Nc1cccc([N+](=O)[O-])c1
TGI (DMS 273 small cell lung): > 100 µM

CNC(=O)c1cncc(/C=C/c2c(C)cccc2C)c1
GI50 (NCI/ADR-RES ovarian): > 25 µM
TGI (NCI/ADR-RES ovarian): > 25 µM

COc1cc([C@@H]2c3cc4c(cc3[C@H](OC(C)=O)[C@H]3COC(=O)[C@H]23)OCO4)cc(OC)c1OC
GI50 (NCI/ADR-RES ovarian): 0.0271 µM
TGI (NCI/ADR-RES ovarian): > 100 µM

O=C1C(Cl)=C(Nc2cccc(O)c2)C(=O)N1c1cccc(Cl)c1
GI50 (NCI/ADR-RES ovarian): 64.1 µM
TGI (NCI/ADR-RES ovarian): > 100 µM

O=C1c2cccc3cc([N+](=O)[O-])cc(c23)C(=O)N1CCN1CCCC1
GI50 (NCI/ADR-RES ovarian): 0.871 µM

CC(C)Cc1ccc(C(C)/C=C2\CCC(CN3CCCC3)C2=O)cc1 (stereo not drawn)
TGI (RXF-631 renal): 49.9 µM
TGI (HOP-18 NSCLC): 33.4 µM
TGI (DMS 273 small cell lung): 14.5 µM
TGI (XF 498 CNS): 22 µM

O=S(=O)(NCCCNc1cc(-c2cn(-c3ccccc3)nc2-c2cccc(O)c2)ccn1)c1cccc2ccccc12
GI50 (NCI/ADR-RES ovarian): 3.72 µM
TGI (NCI/ADR-RES ovarian): > 100 µM

C=CCCC(C)N(C(=O)OC(C)(C)C)S(=O)(=O)c1ccc(C)cc1 (stereo not drawn)
TGI (DMS 273 small cell lung): > 100 µM
TGI (XF 498 CNS): > 100 µM

CC(=O)Nc1ccc2oc(=O)c3ccccc3c2c1
TGI (NCI/ADR-RES ovarian): > 100 µM
TGI (MDA-N): > 100 µM

N/C(=N\c1nc2ccccc2s1)NC(=O)Nc1ccccc1Cl
GI50 (NCI/ADR-RES ovarian): 0.0643 µM
TGI (NCI/ADR-RES ovarian): 8.83 µM

O=C1/C(=C/c2ccccc2)CN(CCC(=O)N2C/C(=C\c3ccccc3)C(=O)/C(=C/c3ccccc3)C2)C/C1=C\c1ccccc1
GI50 (NCI/ADR-RES ovarian): 12.1 µM
TGI (NCI/ADR-RES ovarian): > 76 µM

N=C1C(c2nc3ccccc3s2)=C(O)CN1c1ccc(Cl)cc1Cl
GI50 (NCI/ADR-RES ovarian): 13.5 µM
TGI (NCI/ADR-RES ovarian): 37.4 µM

CC(=O)NC1C(OCc2ccccc2)OC(COC(=O)CCCCCNc2ccc([N+](=O)[O-])c3[nH]c4ccc(O)cc4c(=O)c23)C(O)C1OC(C)C(=O)N[C@@H](C)C(=O)N[C@H](CCC(=O)OCc1ccccc1)C(N)=O (stereo partly drawn)
TGI (RXF-631 renal): 5.35 µM
TGI (HOP-18 NSCLC): 10.6 µM
TGI (DMS 273 small cell lung): 6.03 µM

CC(=O)NNC(=S)/N=C/c1c(O)cc(C)oc1=O
TGI (NCI/ADR-RES ovarian): > 100 µM
TGI (MDA-N): > 100 µM

NCCCn1c2c(c3cc4c(cc3c1=O)OCO4)C(=O)c1ccccc1-2
GI50 (NCI/ADR-RES ovarian): 0.7 µM
TGI (NCI/ADR-RES ovarian): 2.11 µM

COc1cc([C@@H]2c3cc4c(cc3[C@@H](NCc3ccc(C#N)cc3)C3COC(=O)[C@@H]32)OCO4)cc(OC)c1O (stereo partly drawn)
TGI (HOP-18 NSCLC): > 100 µM
TGI (DMS 273 small cell lung): 2.49 µM
TGI (XF 498 CNS): 2.85 µM

C[C@]12CC(C#N)C(=O)C(O)=C1CC[C@@H]1C2CC[C@@]2(C)C1CC[C@@H]2O (stereo partly drawn)
TGI (DMS 273 small cell lung): > 100 µM
TGI (XF 498 CNS): > 100 µM

COC1CC2C=CC3C4OC2(/C(C)=C/C(C)C(C(C)O)OC1=O)C3C(O)C(C)C4OC(=O)c1ccc[nH]1 (stereo not drawn)
TGI (NCI/ADR-RES ovarian): > 100 µM
TGI (MDA-N): > 100 µM

CC(C)c1cccc(C(C)C)c1N=C(N)C#N
TGI (RXF-631 renal): > 100 µM
TGI (HOP-18 NSCLC): > 100 µM
TGI (DMS 273 small cell lung): > 56.9 µM
TGI (XF 498 CNS): > 100 µM

NC(=O)c1cc(Cl)ccc1NC(=O)c1ccccc1-c1ccccc1
GI50 (NCI/ADR-RES ovarian): 0.459 µM
TGI (NCI/ADR-RES ovarian): 26.4 µM

NNC(=O)CCC(=O)Nc1ccc(Cl)cc1Cl
TGI (RXF-631 renal): > 100 µM
TGI (DMS 273 small cell lung): > 100 µM
TGI (XF 498 CNS): > 100 µM

CC1Cc2c(N)nc(N3CCOCC3)nc2NC1=O (stereo not drawn)
TGI (HOP-18 NSCLC): > 100 µM
TGI (DMS 273 small cell lung): > 100 µM

CN(C)c1ccc2cc(-c3cc4c(oc3=O)-c3ccccc3OC4O)c(=O)oc2c1 (stereo not drawn)
GI50 (NCI/ADR-RES ovarian): 3.6 µM
TGI (NCI/ADR-RES ovarian): 17.1 µM

Cc1ccc(C(=O)CCC2C(=O)CC(C)(C)CC2=O)cc1
TGI (NCI/ADR-RES ovarian): > 100 µM
TGI (MDA-N): > 100 µM

O=C(N/C(=C\c1ccc([N+](=O)[O-])cc1)c1nc2ccc(Cl)cc2[nH]1)c1ccccc1
TGI (XF 498 CNS): 46.5 µM

S=P(c1ccccc1)(c1ccccc1)C1(C2(P(=S)(c3ccccc3)c3ccccc3)CC2)CC1
TGI (RXF-631 renal): > 100 µM
TGI (DMS 273 small cell lung): > 100 µM
TGI (XF 498 CNS): > 100 µM
